Experiments:
[1] = biological target: T1, DPP-4 (Homo sapiens, UniProt P27487); experiment: DPP-4 inhibition activity assay (Gly-Pro-p-nitroanilide substrate, OD 405 nm); format: biochemical; conditions: final concentration 1 mg/mL; n = 3; Figure 4A
T1 construct: purchased Millipore Sigma (Burlington, MA, USA)
Method: The inhibition of each sample on DPP-4 was assayed according to a previously described method. Briefly, 20 μL of each sample solution, 50 μL of Tris-HCl buffer (pH8.0, 100 mM), and 100 μL of substrate were mixed in a well of a 96-well plate, then incubated at 37 °C for 10 min. Afterward, the 30 μL of DPP-IV solution was added, then placed at 37 °C for 40 min incubation. Afterward, the optical density was recorded at 405 nm using a BioTek Synergy H1 microplate reader (BioTek, Winooski, VT, USA). The inhibitory effect of the samples on DPP-4 was calculated according to a previously described equation [27].

[2] = biological target: T1, DPP-4; conditions: Bombyx mori protein-derived peptide; cited from earlier work
Text: GLP-1 and GIP are two crucial incretins, which have mainly contributed to the insulin response after meal intake. Suppressing the activity of DPP-4 can increase the level of active incretins, thereby decreasing blood glucose in diabetic patients. Based on the consideration of the adverse effects caused by the chemically synthesized inhibitors, some peptides with inhibitory effects on DPP-4 activity obtained from natural proteins, including milk, egg, grain, edible insects, and aquatic proteins have been widely reported. In the current study, the flavourzyme effectivel ... || It has been reported that the length and size of peptides influence their inhibitory activity against DPP-4.

T1 sequence (P27487 whole entry): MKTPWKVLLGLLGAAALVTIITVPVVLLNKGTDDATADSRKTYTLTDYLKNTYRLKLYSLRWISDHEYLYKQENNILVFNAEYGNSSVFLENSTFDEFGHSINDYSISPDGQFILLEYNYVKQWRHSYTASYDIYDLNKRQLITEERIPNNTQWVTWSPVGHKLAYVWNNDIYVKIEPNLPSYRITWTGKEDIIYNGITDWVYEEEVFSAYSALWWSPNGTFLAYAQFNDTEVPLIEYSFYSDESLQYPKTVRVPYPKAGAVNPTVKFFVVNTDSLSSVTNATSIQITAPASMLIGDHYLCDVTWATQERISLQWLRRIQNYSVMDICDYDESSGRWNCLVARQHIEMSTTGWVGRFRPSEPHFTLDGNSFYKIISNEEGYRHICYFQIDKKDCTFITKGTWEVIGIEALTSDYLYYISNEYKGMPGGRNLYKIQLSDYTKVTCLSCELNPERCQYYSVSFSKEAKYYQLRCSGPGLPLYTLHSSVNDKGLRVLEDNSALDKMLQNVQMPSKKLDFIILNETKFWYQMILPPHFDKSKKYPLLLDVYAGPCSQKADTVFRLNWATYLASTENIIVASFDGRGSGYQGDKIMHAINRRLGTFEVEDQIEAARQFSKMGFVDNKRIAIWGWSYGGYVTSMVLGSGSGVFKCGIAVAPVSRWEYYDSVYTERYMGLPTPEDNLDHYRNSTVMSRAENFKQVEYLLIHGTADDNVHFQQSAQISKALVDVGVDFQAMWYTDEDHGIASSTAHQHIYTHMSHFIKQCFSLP

For “SNGLPFPTRP [synthesized peptide identified from T. molitor flavourzyme hydrolysate; origin Hexamerin 1]”, which “inhibitory effect of the synthesized peptides on DPP-4 activity (in words)” value (shortened to “inhibitory effect”) [1] is on record?
The value was “weak inhibitory activity”.

With LPAVTIR as the substance, how does the “IC50 value against DPP-4” value [2] read?
The value was 148 µg/mL.

Which “inhibitory effect” value [1] does the source give for “GLQFPTRPNF [synthesized peptide; origin 86 kDa early-staged encapsulation inducing protein]” here?
Its value is “weak inhibitory activity”.

With “NEAYFGFPR [synthesized peptide identified from T. molitor flavourzyme hydrolysate; origin Hexamerin 1]” as the substance, how does the “inhibitory effect” value [1] read?
Its value is “weak inhibitory activity”.

Source: paper PMC9689682, “Tenebrio molitor Proteins-Derived DPP-4 Inhibitory Peptides: Preparation, Identification, and Molecular Binding Mechanism” (Foods, 2022)
